From ChEMBL document CHEMBL2203125, “A Potent and Selective Quinoxalinone-Based STK33 Inhibitor Does Not Show Synthetic Lethality in KRAS-Dependent Cells” (ACS Med Chem Lett, 2012)
In brackets after ≈: the same amount, converted by molar mass. Activity calls are given as the source filed them. No cut-off for these calls is given here.

How the values were obtained:
[1] = target: T1, Serine/threonine-protein kinase 33 (Homo sapiens, UniProt Q9BYT3); assay: Inhibition of N-terminal 6His-tagged full length human recombinant STK33 using myelin basic protein as substrate incubated for 15 mins before initiation of kinase reaction measured after 1 hr by ADP-glo assay
Target sequence in this assay (Q9BYT3 whole entry, the tested form may be a part): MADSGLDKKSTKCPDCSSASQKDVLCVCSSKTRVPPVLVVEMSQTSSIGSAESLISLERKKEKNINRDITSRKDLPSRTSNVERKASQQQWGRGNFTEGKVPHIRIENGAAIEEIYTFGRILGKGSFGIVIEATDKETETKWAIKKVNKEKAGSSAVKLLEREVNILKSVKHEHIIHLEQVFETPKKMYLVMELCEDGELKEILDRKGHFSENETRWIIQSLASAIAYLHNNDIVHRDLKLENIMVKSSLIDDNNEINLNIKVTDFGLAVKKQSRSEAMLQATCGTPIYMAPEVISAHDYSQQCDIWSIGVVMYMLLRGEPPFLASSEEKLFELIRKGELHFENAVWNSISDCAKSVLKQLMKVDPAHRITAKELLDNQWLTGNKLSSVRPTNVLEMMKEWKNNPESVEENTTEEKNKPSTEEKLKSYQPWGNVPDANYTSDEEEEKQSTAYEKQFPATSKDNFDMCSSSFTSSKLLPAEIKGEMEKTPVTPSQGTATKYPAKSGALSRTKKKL

[2] = Inhibition of His-tagged recombinant catalytic fragment of PKA assessed as phosphorylation of fluorescent-labeled peptide 21substrate by caliper capillary electrophoresis
Homo sapiens [3] = species: Homo sapiens; assay: Selectivity ratio of IC50 for His-tagged recombinant catalytic fragment of PKA to IC50 for N-terminal 6His-tagged full length human recombinant STK33
[4] = Chemical stability of the compound in DMSO solution by LC-MS analysis; assay type: physicochemical
Homo sapiens [5] = species: Homo sapiens; assay: Selectivity ratio of IC50 for human Aurora-B to IC50 for N-terminal 6His-tagged full length human recombinant STK33
Homo sapiens [6] = species: Homo sapiens; assay: Selectivity ratio of IC50 for N-terminal 6His-tagged full length human recombinant STK33 to IC50 for human Aurora-B
[7] = Metabolic stability in mouse plasma at 5 uM after 5 hrs by UPLC-MS analysis; assay type: ADME, cell-free; details: read-out: Stability
[8] = Metabolic stability in human plasma at 5 uM after 5 hrs by UPLC-MS analysis; assay type: ADME, cell-free; details: read-out: Stability
Plasma [9] = assay: Plasma protein binding in mouse at 5 uM after 5 hrs by equilibrium dialysis method; assay type: ADME, cell-free
Plasma [10] = assay: Plasma protein binding in human at 5 uM after 5 hrs by equilibrium dialysis method; assay type: ADME, cell-free
[11] = Solubility of the compound in PBS at pH 7.4; assay type: physicochemical; details: buffer
OCI-AML-3 = assay: Cytotoxicity against human OCI-AML3 cells expressing wild type KRAS assessed as effect on cell viability up to 10 uM after 72 hrs by CellTiter-Glo luminescent assay; assay type: functional, cell-based
THP-1 = assay: Cytotoxicity against human THP1 cells expressing wild type KRAS assessed as effect on cell viability up to 10 uM after 72 hrs by CellTiter-Glo luminescent assay; assay type: functional, cell-based
Jurkat = assay: Cytotoxicity against human Jurkat cells expressing wild type KRAS assessed as effect on cell viability up to 10 uM after 72 hrs by CellTiter-Glo luminescent assay; assay type: functional, cell-based
MOLM16 = assay: Cytotoxicity against human MOLM16 cells expressing wild type KRAS assessed as effect on cell viability up to 10 uM after 72 hrs by CellTiter-Glo luminescent assay; assay type: functional, cell-based
MM1.S = assay: Cytotoxicity against human MM1S cells expressing wild type KRAS assessed as effect on cell viability up to 10 uM after 72 hrs by CellTiter-Glo luminescent assay; assay type: functional, cell-based
U-937 = assay: Cytotoxicity against human U937 cells expressing wild type KRAS assessed as effect on cell viability up to 10 uM after 72 hrs by CellTiter-Glo luminescent assay; assay type: functional, cell-based
EJM = assay: Cytotoxicity against human EJM cells expressing wild type KRAS assessed as effect on cell viability up to 10 uM after 72 hrs by CellTiter-Glo luminescent assay; assay type: functional, cell-based
GDM-1 = assay: Cytotoxicity against human GDM-1 cells expressing wild type KRAS assessed as effect on cell viability up to 10 uM after 72 hrs by CellTiter-Glo luminescent assay; assay type: functional, cell-based
EOL1 = assay: Cytotoxicity against human EOL-1 cells expressing wild type KRAS assessed as effect on cell viability up to 10 uM after 72 hrs by CellTiter-Glo luminescent assay; assay type: functional, cell-based
PL21 = assay: Cytotoxicity against human PL21 cells expressing wild type KRAS assessed as effect on cell viability up to 10 uM after 72 hrs by CellTiter-Glo luminescent assay; assay type: functional, cell-based
Homo sapiens [12] = species: Homo sapiens; assay: Cytotoxicity against human KARPAS620 cells expressing KRAS mutant gene assessed as effect on cell viability up to 10 uM after 72 hrs by CellTiter-Glo luminescent assay; assay type: functional, cell-based
RPMI-8226 = assay: Cytotoxicity against human RPMI8226 cells expressing KRAS mutant gene assessed as effect on cell viability up to 10 uM after 72 hrs by CellTiter-Glo luminescent assay; assay type: functional, cell-based
NB-4 = assay: Cytotoxicity against human NB4 cells expressing KRAS mutant gene assessed as effect on cell viability up to 10 uM after 72 hrs by CellTiter-Glo luminescent assay; assay type: functional, cell-based
SKM-1 = assay: Cytotoxicity against human SKM1 cells expressing KRAS mutant gene assessed as effect on cell viability up to 10 uM after 72 hrs by CellTiter-Glo luminescent assay; assay type: functional, cell-based
KOPN-8 = assay: Cytotoxicity against human KOPN8 cells expressing KRAS mutant gene assessed as effect on cell viability up to 10 uM after 72 hrs by CellTiter-Glo luminescent assay; assay type: functional, cell-based
MDA-MB-231 = assay: Cytotoxicity against human MDA-MB-231 cells expressing KRAS mutant gene assessed as effect on cell viability up to 10 uM after 72 hrs by CellTiter-Glo luminescent assay; assay type: functional, cell-based
NOMO-1 = assay: Cytotoxicity against human NOMO1 cells expressing KRAS mutant gene assessed as effect on cell viability up to 10 uM after 72 hrs by CellTiter-Glo luminescent assay; assay type: functional, cell-based
[13] = target: T1, Serine/threonine-protein kinase 33; details: 1 uM
Target sequence in this assay (Q9BYT3 whole entry, looked up, the tested form may be a part): as the sequence (Q9BYT3 whole entry, the tested form may be a part) above
Description: Inhibition of N-terminal 6His-tagged full length human recombinant STK33 using myelin basic protein as substrate at 1 uM incubated for 15 mins before initiation of kinase reaction measured after 1 hr by ADP-glo assay

[14] = target: Vascular endothelial growth factor receptor 2 (Homo sapiens) (UniProt P35968); details: 1 uM
Description: Inhibition of human KDR at 1 uM

[15] = target: Receptor-type tyrosine-protein kinase FLT3 (Homo sapiens) (UniProt P36888); details: 1 uM
Sequence of Receptor-type tyrosine-protein kinase FLT3 (Homo sapiens) (P36888 whole entry): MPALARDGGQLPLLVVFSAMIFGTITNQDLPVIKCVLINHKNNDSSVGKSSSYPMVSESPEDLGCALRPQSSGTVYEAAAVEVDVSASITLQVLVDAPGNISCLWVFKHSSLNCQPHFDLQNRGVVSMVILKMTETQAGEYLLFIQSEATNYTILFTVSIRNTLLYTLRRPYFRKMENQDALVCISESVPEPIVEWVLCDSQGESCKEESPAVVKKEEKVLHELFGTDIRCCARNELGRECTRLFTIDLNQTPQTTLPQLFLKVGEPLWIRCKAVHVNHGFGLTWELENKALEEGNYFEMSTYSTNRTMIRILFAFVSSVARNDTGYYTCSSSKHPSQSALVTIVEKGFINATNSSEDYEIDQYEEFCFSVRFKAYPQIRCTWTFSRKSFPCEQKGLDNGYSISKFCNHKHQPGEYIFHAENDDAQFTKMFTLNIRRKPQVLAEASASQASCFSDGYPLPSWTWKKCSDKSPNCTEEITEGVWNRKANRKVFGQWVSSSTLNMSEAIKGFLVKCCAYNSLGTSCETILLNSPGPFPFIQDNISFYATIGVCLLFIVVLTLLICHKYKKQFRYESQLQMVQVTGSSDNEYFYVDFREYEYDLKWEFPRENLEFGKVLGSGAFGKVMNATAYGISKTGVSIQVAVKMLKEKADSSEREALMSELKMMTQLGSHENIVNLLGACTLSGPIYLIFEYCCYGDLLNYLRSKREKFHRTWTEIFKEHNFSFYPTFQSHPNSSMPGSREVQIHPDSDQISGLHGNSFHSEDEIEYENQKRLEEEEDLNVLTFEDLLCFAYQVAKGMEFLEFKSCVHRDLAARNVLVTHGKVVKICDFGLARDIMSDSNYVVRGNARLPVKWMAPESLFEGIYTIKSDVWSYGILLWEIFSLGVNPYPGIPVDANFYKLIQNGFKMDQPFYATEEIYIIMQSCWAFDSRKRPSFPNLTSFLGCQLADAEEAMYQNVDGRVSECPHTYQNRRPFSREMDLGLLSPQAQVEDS
Description: Inhibition of human FLT3 at 1 uM

Sequence of Vascular endothelial growth factor receptor 2 (Homo sapiens) (P35968 whole entry): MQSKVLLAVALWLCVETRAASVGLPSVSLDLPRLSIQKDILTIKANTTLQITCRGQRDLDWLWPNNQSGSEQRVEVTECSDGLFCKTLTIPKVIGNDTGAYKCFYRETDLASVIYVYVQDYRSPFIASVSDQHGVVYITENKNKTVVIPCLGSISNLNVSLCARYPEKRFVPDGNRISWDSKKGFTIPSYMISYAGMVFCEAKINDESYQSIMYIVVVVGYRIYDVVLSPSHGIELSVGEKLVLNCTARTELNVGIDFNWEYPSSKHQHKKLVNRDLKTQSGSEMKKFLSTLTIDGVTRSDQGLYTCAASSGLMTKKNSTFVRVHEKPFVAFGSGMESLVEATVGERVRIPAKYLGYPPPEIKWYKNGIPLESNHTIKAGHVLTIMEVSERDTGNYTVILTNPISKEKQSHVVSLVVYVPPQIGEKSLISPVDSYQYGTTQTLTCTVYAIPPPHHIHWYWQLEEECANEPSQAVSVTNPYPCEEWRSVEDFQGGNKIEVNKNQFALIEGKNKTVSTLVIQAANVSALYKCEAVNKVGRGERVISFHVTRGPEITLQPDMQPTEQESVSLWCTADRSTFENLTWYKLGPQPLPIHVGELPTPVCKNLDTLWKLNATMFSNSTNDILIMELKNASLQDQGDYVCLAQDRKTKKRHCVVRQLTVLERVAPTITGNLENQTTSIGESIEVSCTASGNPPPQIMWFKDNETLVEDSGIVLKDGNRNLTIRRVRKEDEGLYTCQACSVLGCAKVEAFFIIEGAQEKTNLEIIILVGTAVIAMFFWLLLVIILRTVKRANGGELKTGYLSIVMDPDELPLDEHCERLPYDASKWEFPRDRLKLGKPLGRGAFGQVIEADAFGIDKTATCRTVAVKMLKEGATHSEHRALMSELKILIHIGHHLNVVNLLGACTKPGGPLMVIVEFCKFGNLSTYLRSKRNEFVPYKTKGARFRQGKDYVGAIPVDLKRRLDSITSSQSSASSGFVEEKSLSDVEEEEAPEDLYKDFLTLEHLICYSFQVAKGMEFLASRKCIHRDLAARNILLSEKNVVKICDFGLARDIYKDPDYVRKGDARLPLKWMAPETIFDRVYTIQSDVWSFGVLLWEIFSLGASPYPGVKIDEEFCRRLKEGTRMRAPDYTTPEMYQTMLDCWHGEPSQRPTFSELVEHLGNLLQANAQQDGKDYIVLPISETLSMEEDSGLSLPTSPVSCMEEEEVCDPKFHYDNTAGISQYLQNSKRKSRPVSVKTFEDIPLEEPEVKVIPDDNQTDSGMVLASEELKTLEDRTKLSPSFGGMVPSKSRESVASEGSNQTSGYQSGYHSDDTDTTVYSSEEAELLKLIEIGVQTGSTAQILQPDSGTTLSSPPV

O=c1[nH]c2ccccc2nc1-c1ccccc1NCc1ccccn1
IC50 [1]: 1600 nM

O=C(Nc1ccccc1-c1nc2ccccc2[nH]c1=O)c1ccccc1
IC50 [1]: 170 nM

O=C(Nc1ccccc1-c1nc2ccccc2[nH]c1=O)C1CCCCC1
IC50 [2]: > 10000 nM | IC50 [1]: > 10000 nM

COc1ccc(NC(=O)c2cccs2)c(-c2nc3ccccc3[nH]c2=O)c1
IC50 [2]: 7500 nM | Ratio IC50 (Homo sapiens [3]): 30 | IC50 [1]: 250 nM

O=c1[nH]c2ccccc2nc1-c1ccccc1NS(=O)(=O)c1cccs1
IC50 [1]: > 10000 nM

O=C(Nc1ccc(OC(F)(F)F)cc1-c1nc2ccccc2[nH]c1=O)c1cccs1
IC50 [2]: > 10000 nM | IC50 [1]: 110 nM

O=C(Nc1ccccc1-c1nc2ccccc2[nH]c1=O)c1ccc(Cl)cc1
IC50 [1]: 300 nM

O=C(Nc1ccccc1-c1nc2cc(Cl)c(Cl)cc2[nH]c1=O)c1cccs1
IC50 [2]: 4800 nM | Ratio IC50 (Homo sapiens [3]): 1.1 | IC50 [1]: 4000 nM

O=C(Nc1ccc(F)cc1-c1nc2ccccc2[nH]c1=O)c1cccs1
IC50 [2]: > 10000 nM | IC50 [1]: 410 nM

O=C(Nc1ccccc1-c1nc2ccccc2[nH]c1=O)c1ccc(F)cc1
Stability [4]: Unstable | IC50 [2]: > 10000 nM | IC50 [1]: 150 nM

O=C(Nc1ccccc1-c1nc2ccccc2[nH]c1=O)c1cccnc1
Stability [4]: Stable | IC50 [2]: > 10000 nM | IC50 [1]: 580 nM

O=C(Nc1cc(F)ccc1-c1nc2ccccc2[nH]c1=O)c1cccs1
IC50 [2]: > 10000 nM | IC50 [1]: 78 nM

O=C(Nc1cc(Cl)ccc1-c1nc2ccccc2[nH]c1=O)c1cccs1
IC50 [2]: > 10000 nM | IC50 [1]: 270 nM

O=C(Nc1ccccc1-c1nc2ccccc2[nH]c1=O)c1nccs1
IC50 [1]: 530 nM

O=c1[nH]c2ccccc2nc1-c1ccccc1NCc1ccccc1
IC50 [2]: > 10000 nM | IC50 [1]: > 10000 nM

O=c1[nH]c2ccccc2nc1-c1ccccc1NCc1ccc(F)cc1
IC50 [1]: > 10000 nM

CC(=O)NC[C@@H]1C[C@@H](NS(=O)(=O)c2cccc3cncc(C)c23)CN1
Ratio IC50 (Homo sapiens [5]): 5 | Ratio IC50 (Homo sapiens [3]): 5

Cc1cc2nc(-c3ccccc3NC(=O)c3cccs3)c(=O)[nH]c2cc1C
IC50 [2]: > 10000 nM | IC50 [1]: 1600 nM

COc1ccc(-n2ncc3ccc(Nc4ccc(N5CCN(C)CC5)c(OC)c4)nc32)cc1
Ratio IC50 (Homo sapiens [5]): 0.4 | Ratio IC50 (Homo sapiens [6]): 2

COc1ccc(C(=O)Nc2ccccc2-c2nc3ccccc3[nH]c2=O)cc1
IC50 [2]: > 10000 nM | IC50 [1]: 980 nM

O=c1[nH]c2ccccc2nc1-c1ccccc1NCC1CC1
IC50 [1]: > 10000 nM

O=C(Nc1ccccc1-c1nc2cc(F)c(F)cc2[nH]c1=O)c1cccs1
IC50 [2]: > 10000 nM | IC50 [1]: 1600 nM

O=C(Nc1ccccc1-c1nc2ccccc2[nH]c1=O)c1ccc(Cl)s1
IC50 [1]: 380 nM

O=C(Nc1ccccc1-c1nc2ccccc2[nH]c1=O)c1ccccn1
Stability [4]: Unstable | IC50 [2]: > 10000 nM | IC50 [1]: 76 nM

O=C(Nc1ccc(Cl)cc1-c1nc2ccccc2[nH]c1=O)c1cccs1
IC50 [2]: > 10000 nM | IC50 [1]: 160 nM

O=C(Nc1ccccc1-c1nc2ccccc2nc1O)c1cccs1
IC50 [2]: > 10000 nM | IC50 [1]: 280 nM

CC(C)c1ccc(NC(=O)c2cccs2)c(-c2nc3ccccc3[nH]c2=O)c1
remaining at 5 h, 5 µM [7]: 10% | remaining at 5 h, 5 µM [8]: 80.3% | PPB (Plasma [9]): 99.9% | PPB (Plasma [10]): 99.6% | solubility [11]: 5.8 µM (≈ 2.26 µg/mL) | Activity (OCI-AML-3): inactive | Activity (THP-1): inactive | Activity (Jurkat): inactive | Activity (MOLM16): inactive | Activity (MM1.S): inactive | Activity (U-937): inactive | Activity (EJM): inactive | Activity (GDM-1): inactive | Activity (EOL1): inactive | Activity (PL21): inactive | Activity (Homo sapiens [12]): inactive | Activity (RPMI-8226): inactive | Activity (NB-4): inactive | Activity (SKM-1): inactive | Activity (KOPN-8): inactive | Activity (MDA-MB-231): inactive | Activity (NOMO-1): inactive | IC50 [2]: > 10000 nM | IC50 [1]: 14 nM | inhibition [13]: > 25% | inhibition [14]: > 25% | inhibition [15]: > 25%

O=c1[nH]c2ccccc2nc1-c1ccccc1NS(=O)(=O)c1ccccc1
IC50 [1]: 7300 nM

O=c1[nH]c2ccccc2nc1-c1ccccc1NCc1cccs1
IC50 [2]: > 10000 nM | IC50 [1]: > 10000 nM
